# Measurements: patent US8530460B2, “Azetidine derivatives” (Boehringer Ingelheim International GmbH, priority 2011, dated 2013)
# Target: human ACC2 (Homo sapiens (Human), UniProt O00763)
# Test: ACC2 assay (spectrophotometric 384 well assay, NADH-linked coupled lactate dehydrogenase/pyruvate kinase)
# Format: biochemical
# Conditions: hACC2 construct lacking 128 N-terminal amino acids; 25° C., 340 nm, 15 minutes
# Description: Spectrophotometric 384 Well Assay
# Malonyl CoA formation by acetyl CoA carboxylases is stoichometrically linked to the consumption of ATP. ACC2 activity is measured in a NADH-linked kinetic method measuring ADP generated during the ACC reaction using a coupled lactate dehydrogenase/pyruvate kinase reaction.
# For biological testing, a human ACC2 construct which lacks the 128 amino acids at the N-terminus for increased solubility (nt 385-6966 in Genbank entry AJ575592) is cloned. The protein is then expressed in insect cells using a baculoviral expression system. Protein purification is performed by anion exchange.
# All compounds are dissolved in dimethyl sulfoxide (DMSO) to a concentration of 10 mM.
# Assay reactions are then carried out in 384-well plates, with hACC2 in an appropriate dilution and at final assay concentrations (f.c.) of 100 mM Tris (pH 7.5), 10 mM trisodium citrate, 25 mM KHCO3, 10 mM MgCl2, 0.5 mg/ml BSA, 3.75 mM reduced L-glutathione, 15 U/ml lactate dehydrogenase, 0.5 mM phosphoenolpyruvate, 15 U/ml pyruvate kinase, compounds at different concentrations at final DMSO concentrations of 1%.
# The enzymatic reaction is then started by addition of a mixture of NADH, acetyl Coenzyme A (both 200 μM f.c.) and ATP (500 uM f.c.). The decrease of the optical density (slope S) is then determined at 25° C. at a wavelength of 340 nm over 15 minutes in a spectrophotometric reader.
# Each assay microtiter plate contains wells with vehicle instead of compound as controls for the non-inhibited enzyme (100% CTL; ‘HIGH’) and wells without acetyl-CoA as controls for non-specific NADH degradation (0% CTL; ‘LOW’).
# The slope S is used for calculation of % CTL=(S(compound)−S(‘LOW’))/(S(‘HIGH’)—S(‘LOW’))*100. Compounds will give values between 100% CTL (no inhibition) and 0% CTL (complete inhibition).
# For IC50 value determination, the sample slope in the presence of the test compound after subtraction of the low controls (S(compound)−S(‘LOW’)) are used.
# An IC50 value is derived from the compound slopes at different dosages after subtraction of the low controls (S(compound)−S(‘LOW’)) by non-linear regression curve fitting (equation y=(A+((B−A)/(1+((C/x)^D))))).
# Sequence of human ACC2 (O00763 129-2458): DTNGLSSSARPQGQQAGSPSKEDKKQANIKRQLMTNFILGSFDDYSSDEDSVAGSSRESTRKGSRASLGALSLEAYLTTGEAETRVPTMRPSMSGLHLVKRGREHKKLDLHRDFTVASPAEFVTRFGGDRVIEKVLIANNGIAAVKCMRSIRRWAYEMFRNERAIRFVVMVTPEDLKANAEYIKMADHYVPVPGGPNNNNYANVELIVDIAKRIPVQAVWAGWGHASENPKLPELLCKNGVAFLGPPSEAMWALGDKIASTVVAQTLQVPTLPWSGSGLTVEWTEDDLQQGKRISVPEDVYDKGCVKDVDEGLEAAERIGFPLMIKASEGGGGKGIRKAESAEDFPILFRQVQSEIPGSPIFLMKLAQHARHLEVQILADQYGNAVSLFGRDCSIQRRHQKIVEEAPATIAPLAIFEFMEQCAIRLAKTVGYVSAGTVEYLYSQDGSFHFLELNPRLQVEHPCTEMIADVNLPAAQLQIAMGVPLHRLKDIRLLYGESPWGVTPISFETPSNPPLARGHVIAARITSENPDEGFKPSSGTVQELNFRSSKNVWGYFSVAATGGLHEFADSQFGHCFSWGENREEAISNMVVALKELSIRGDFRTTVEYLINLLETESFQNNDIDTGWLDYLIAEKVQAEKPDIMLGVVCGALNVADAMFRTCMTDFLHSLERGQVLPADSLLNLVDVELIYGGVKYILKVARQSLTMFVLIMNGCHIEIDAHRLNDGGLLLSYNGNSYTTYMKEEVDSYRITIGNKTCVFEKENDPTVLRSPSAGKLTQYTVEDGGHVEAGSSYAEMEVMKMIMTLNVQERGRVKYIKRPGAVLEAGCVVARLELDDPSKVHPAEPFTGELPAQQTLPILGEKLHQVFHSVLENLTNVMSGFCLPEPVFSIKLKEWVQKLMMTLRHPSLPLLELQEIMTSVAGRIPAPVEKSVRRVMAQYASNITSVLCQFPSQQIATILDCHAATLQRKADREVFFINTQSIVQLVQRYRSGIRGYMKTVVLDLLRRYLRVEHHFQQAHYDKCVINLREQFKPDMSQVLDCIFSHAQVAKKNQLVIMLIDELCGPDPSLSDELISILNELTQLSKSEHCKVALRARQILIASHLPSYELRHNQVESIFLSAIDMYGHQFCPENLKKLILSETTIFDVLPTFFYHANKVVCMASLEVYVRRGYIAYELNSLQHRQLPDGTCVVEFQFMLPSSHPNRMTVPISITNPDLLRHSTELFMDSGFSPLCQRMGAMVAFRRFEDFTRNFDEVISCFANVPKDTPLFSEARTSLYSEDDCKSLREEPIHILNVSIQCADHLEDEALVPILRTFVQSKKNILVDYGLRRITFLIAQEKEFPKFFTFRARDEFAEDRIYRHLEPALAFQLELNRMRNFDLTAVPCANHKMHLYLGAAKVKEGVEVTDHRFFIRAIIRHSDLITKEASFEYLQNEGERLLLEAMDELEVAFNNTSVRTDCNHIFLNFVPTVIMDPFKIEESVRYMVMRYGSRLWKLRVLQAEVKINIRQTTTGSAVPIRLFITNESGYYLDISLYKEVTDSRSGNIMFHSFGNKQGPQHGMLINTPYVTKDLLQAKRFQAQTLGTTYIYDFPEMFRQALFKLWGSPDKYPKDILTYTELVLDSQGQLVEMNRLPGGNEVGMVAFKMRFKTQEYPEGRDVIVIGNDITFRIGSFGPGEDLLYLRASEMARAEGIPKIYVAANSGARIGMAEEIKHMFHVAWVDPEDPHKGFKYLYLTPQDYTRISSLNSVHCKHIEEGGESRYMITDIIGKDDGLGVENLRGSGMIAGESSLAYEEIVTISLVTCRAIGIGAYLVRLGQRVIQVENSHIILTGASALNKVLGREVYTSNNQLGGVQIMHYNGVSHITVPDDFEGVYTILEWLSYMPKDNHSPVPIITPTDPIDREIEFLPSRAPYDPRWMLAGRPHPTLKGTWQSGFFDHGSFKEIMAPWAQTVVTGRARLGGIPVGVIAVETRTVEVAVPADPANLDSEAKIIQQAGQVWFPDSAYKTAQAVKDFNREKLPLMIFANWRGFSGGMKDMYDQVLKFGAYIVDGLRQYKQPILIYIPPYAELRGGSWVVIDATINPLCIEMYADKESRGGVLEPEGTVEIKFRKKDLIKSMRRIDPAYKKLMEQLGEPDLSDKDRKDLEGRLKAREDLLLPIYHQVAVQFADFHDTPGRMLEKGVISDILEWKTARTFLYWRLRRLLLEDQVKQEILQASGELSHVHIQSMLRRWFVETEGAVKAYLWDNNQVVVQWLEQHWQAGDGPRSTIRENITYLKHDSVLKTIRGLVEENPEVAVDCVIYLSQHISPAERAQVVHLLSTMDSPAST
row,SMILES,IC50
1,CC(=O)N[C@@H](C)c1ccc(OC2CN(c3ncc(-c4ccc(F)cc4)cn3)C2)cc1 [Example 6.1],90 nM
2,COc1cc(-c2cnc(N3CC(Oc4ccc([C@H](C)NC(C)=O)cc4)C3)nc2)ccn1 [Example 6.2],1740 nM
3,CC(=O)NC(C)c1ccc(OC2CN(c3ncc(C4CC4)cn3)C2)cc1 (stereo not drawn) [Example 6.3],150 nM
4,CC(=O)N[C@@H](C)c1ccc(OC2CN(c3cccc(OCC4CC4)c3)C2)cc1 [Example 7.1],1440 nM
5,CC(=O)N[C@@H](C)c1ccc(OC2CN(c3cccc(OCC4CC4(F)F)c3)C2)cc1 (stereo partly drawn) [Example 7.2],1250 nM
6,CC(=O)N[C@@H](C)c1ccc(OC2CN(c3cccc(OC4CCCC4)c3)C2)cc1 [Example 7.3],780 nM
7,"CCCOc1ccc(N2CC(Oc3ccc([C@H](C)NC(=O)C4CC4)cc3)C2)c(OC)c1 [Example 8.1, (S)—N-(1-(4-(1-(2-Methoxy-4-propoxyphenyl)azetidin-3-yloxy)phenyl)ethyl)cyclopropanecarboxamide]",7700 nM
8,CCCOc1ccc(N2CC(Oc3ccc([C@H](C)NC(=O)CF)cc3)C2)c(OC)c1 [Example 8.2],2370 nM
9,CCCOc1ccc(N2CC(Oc3ccc([C@H](C)NC(=O)c4cn[nH]c4)cc3)C2)c(OC)c1 [Example 8.3],1090 nM
10,CCCOc1ccc(N2CC(Oc3ccc([C@H](C)NC(=O)c4cncs4)cc3)C2)c(OC)c1 [Example 8.4],430 nM
11,C[C@H](NC(=O)c1cn[nH]c1)c1ccc(OC2CN(c3ncc(C4CC4)cn3)C2)cc1 [Example 8.5],160 nM
12,C[C@H](NC(=O)CC#N)c1ccc(OC2CN(c3ncc(C4CC4)cn3)C2)cc1 [Example 8.6],1770 nM
13,CCOc1ccc(N2CC(Oc3ccc([C@H](C)NC(=O)c4cn[nH]c4)cc3)C2)cc1 [Example 8.7],50 nM
14,CCOc1ccc(N2CC(Oc3ccc([C@H](C)NC(=O)CC#N)cc3)C2)cc1 [Example 8.8],430 nM
15,CCOc1ccc(N2CC(Oc3ccc([C@H](C)NC(=O)C4(C)CC4)cc3)C2)cc1 [Example 8.9],1150 nM
16,CCOc1ccc(N2CC(Oc3ccc([C@H](C)NC(=O)c4cnc(NC(=O)CO)s4)cc3)C2)cc1 [Example 8.10],370 nM
17,CCOc1ccc(N2CC(Oc3ccc([C@H](C)NC(=O)c4cccc(NC(C)=O)c4)cc3)C2)cc1 [Example 8.11],2840 nM
18,CCOc1ccc(N2CC(Oc3ccc([C@H](C)NC(=O)C4(C#N)CC4)cc3)C2)cc1 [Example 8.12],1000 nM
19,C=CCC(=O)N[C@@H](C)c1ccc(OC2CN(c3ccc(OCC)cc3)C2)cc1 [Example 8.13],450 nM
20,CCOc1ccc(N2CC(Oc3ccc([C@H](C)NC(=O)c4ccnnc4)cc3)C2)cc1 [Example 8.14],2250 nM
21,CCOc1ccc(N2CC(Oc3ccc([C@H](C)NC(=O)CC4CC4)cc3)C2)cc1 [Example 8.15],1740 nM
22,CCOc1ccc(N2CC(Oc3ccc([C@H](C)NC(=O)C(C)C)cc3)C2)cc1 [Example 8.16],700 nM
23,CCOc1ccc(N2CC(Oc3ccc([C@H](C)NC(=O)CO)cc3)C2)cc1 [Example 8.17],2790 nM
24,CCOc1ccc(N2CC(Oc3ccc([C@H](C)NC(=O)CC(F)(F)F)cc3)C2)cc1 [Example 8.18],740 nM
25,CCOc1ccc(N2CC(Oc3ccc([C@H](C)NC(=O)C4CC(F)C4)cc3)C2)cc1 (stereo partly drawn) [Example 8.19],690 nM
26,CCOc1ccc(N2CC(Oc3ccc([C@H](C)NC(=O)C4CCC4)cc3)C2)cc1 [Example 8.20],480 nM
27,CCOc1ccc(N2CC(Oc3ccc([C@H](C)NC(=O)C4(C(F)(F)F)CC4)cc3)C2)cc1 [Example 8.21],300 nM
28,CCOc1ccc(N2CC(Oc3ccc([C@H](C)NC(=O)c4nc(C)sc4C)cc3)C2)cc1 [Example 8.22],1870 nM
29,CCOc1ccc(N2CC(Oc3ccc([C@H](C)NC(=O)CN(C)C)cc3)C2)cc1 [Example 8.23],5790 nM
30,CCOc1ccc(N2CC(Oc3ccc([C@H](C)NC(=O)Cc4cccnc4)cc3)C2)cc1 [Example 8.24],3940 nM
